Data from patent US4567143A, “Process for preparing 4'-deschlororebeccamycin” (Bristol-Myers Company, priority 1985, dated 1986).
In brackets after ≈: the same amount, converted by molar mass.

Key:
E. cloacae A9656 = assay: Antibacterial activity, serial two-fold agar dilution; format: cell-based; settings: Enterobacter cloacae, read-out: Minimum Inhibitory Concentration (MIC)
Experimental: (§1) The antibacterial activity of 4'-deschlororebeccamycin was determined against a number of gram-positive and gram-negative organisms by the serial two-fold agar dilution method. The results are shown in Table 5 below in comparison with the activity of rebeccamycin.

E. cloacae A9659 = assay: as above; format: cell-based; settings: Enterobacter cloacae, read-out: Minimum Inhibitory Concentration (MIC)
Experimental: as §1

K. pneumoniae A20468 = assay: as above; format: cell-based; settings: Klebsiella pneumoniae, read-out: Minimum Inhibitory Concentration (MIC)
Experimental: as §1

K. pneumoniae A9664 = assay: as above; format: cell-based; settings: Klebsiella pneumoniae, read-out: Minimum Inhibitory Concentration (MIC)
Experimental: as §1

[1] = test system: List. monocytogenes A15121; assay: as above; format: cell-based; settings: Listeria monocytogenes, read-out: Minimum Inhibitory Concentration (MIC)
Experimental: as §1

[2] = test system: List. monocytogenes A20025; assay: as above; format: cell-based; settings: Listeria monocytogenes, read-out: Minimum Inhibitory Concentration (MIC)
Experimental: as §1

M. luteus A9547 = assay: as above; format: cell-based; settings: Micrococcus luteus, read-out: Minimum Inhibitory Concentration (MIC)
Experimental: as §1

M. morganii A15153 = assay: as above; format: cell-based; settings: Morganella morganii, read-out: Minimum Inhibitory Concentration (MIC)
Experimental: as §1

P. aeruginosa A21213 = assay: as above; format: cell-based; settings: Pseudomonas aeruginosa, read-out: Minimum Inhibitory Concentration (MIC)
Experimental: as §1

P. aeruginosa A9843A = assay: as above; format: cell-based; settings: Pseudomonas aeruginosa, read-out: Minimum Inhibitory Concentration (MIC)
Experimental: as §1

P. mirabilis A9900 = assay: as above; format: cell-based; settings: Proteus mirabilis, read-out: Minimum Inhibitory Concentration (MIC)
Experimental: as §1

P. rettgeri A22424 = assay: as above; format: cell-based; settings: Providencia rettgeri, read-out: Minimum Inhibitory Concentration (MIC)
Experimental: as §1

P. vulgaris A21559 = assay: as above; format: cell-based; settings: Proteus vulgaris, read-out: Minimum Inhibitory Concentration (MIC)
Experimental: as §1

[3] = test system: S. aureus (Pen-Res) A9606; assay: as above; format: cell-based; settings: Staphylococcus aureus, read-out: Minimum Inhibitory Concentration (MIC)
Experimental: as §1

S. aureus A9537 = assay: as above; format: cell-based; settings: Staphylococcus aureus, read-out: Minimum Inhibitory Concentration (MIC)
Experimental: as §1

S. coli A15119 = assay: as above; format: cell-based; settings: read-out: Minimum Inhibitory Concentration (MIC)
Experimental: as §1

S. coli A20341-1 = assay: as above; format: cell-based; settings: read-out: Minimum Inhibitory Concentration (MIC)
Experimental: as §1

S. faecalis A20688 = assay: as above; format: cell-based; settings: Enterococcus faecalis, read-out: Minimum Inhibitory Concentration (MIC)
Experimental: as §1

S. marcescens A20019 = assay: as above; format: cell-based; settings: Serratia marcescens, read-out: Minimum Inhibitory Concentration (MIC)
Experimental: as §1

S. pneumoniae A9585 = assay: as above; format: cell-based; settings: Streptococcus pneumoniae, read-out: Minimum Inhibitory Concentration (MIC)
Experimental: as §1

S. pyogenes A9604 = assay: as above; format: cell-based; settings: Streptococcus pyogenes, read-out: Minimum Inhibitory Concentration (MIC)
Experimental: as §1

P-388 leukemia = assay: Effect on transplanted mouse leukemia P-388; format: in vivo, mouse (CDF1 F mice); settings: IP, single injection day 1; for MST % T/C: >125 considered significant tumor inhibition; for Average weight change, day 5: control 0.6; for MST (median survival time): control 11.0
Experimental: 4'-Deschlororebeccamycin was also tested against the transplanted mouse leukemia P-388 and the results are shown below in Table 6. The methodology used generally followed the protocols of the National Cancer Institute [Cancer Chemotherapy Rep. Part 3, 3, 1-103 (1972)]. The essential experimental details are given at the bottom of Table 6.
Tumor inoculum: 10^6 ascites cells, ip
Treatment: Single injection on day 1 given i.p.
Evaluation: MST = median survival time
Effect: % T/C = (MST treated/MST control) × 100
Criteria: % T/C >125 considered significant tumor inhibition
Control: Saline (0.5 ml) given once daily i.p. for 5 days

Solubility = format: physicochemical
[4] = test system: gram-positive and gram-negative organisms; assay: Antimicrobial activity (general statement); format: cell-based
Experimental: as §1

**Q.** For `COC1C(CO)OC(n2c3c(Cl)cccc3c3c4c(c5c6ccccc6[nH]c5c32)C(=O)NC4=O)C(O)C1O` (stereo not drawn) [4'-Deschlororebeccamycin], which MIC (E. cloacae A9656) is on record?
**A.** Its MIC is greater than 250 µg/mL.

**Q.** And the MIC (E. cloacae A9659)?
**A.** Its MIC is greater than 250 µg/mL.

**Q.** And the MIC (K. pneumoniae A20468)?
**A.** The MIC was greater than 250 µg/mL.

**Q.** What about the MIC (K. pneumoniae A9664) of the same compound?
**A.** Its MIC is greater than 250 µg/mL.

**Q.** And the MIC [1]?
**A.** Its MIC is 32 µg/mL (≈ 59.7 µM).

**Q.** And the MIC [2]?
**A.** Its MIC is 63 µg/mL (≈ 118 µM).

**Q.** And the MIC (M. luteus A9547)?
**A.** Its MIC is 1 µg/mL (≈ 1.87 µM).

**Q.** What about the MIC (M. morganii A15153) of the same compound?
**A.** Its MIC is greater than 250 µg/mL.

**Q.** And the MIC (P. aeruginosa A21213)?
**A.** Its MIC is greater than 250 µg/mL.

**Q.** What about the MIC (P. aeruginosa A9843A) of the same compound?
**A.** Its MIC is greater than 250 µg/mL.

**Q.** And the MIC (P. mirabilis A9900)?
**A.** Its MIC is greater than 250 µg/mL.

**Q.** What about the MIC (P. rettgeri A22424) of the same compound?
**A.** Its MIC is greater than 250 µg/mL.

**Q.** What about the MIC (P. vulgaris A21559) of the same compound?
**A.** The MIC was greater than 250 µg/mL.

**Q.** What about the MIC [3] of the same compound?
**A.** The MIC was greater than 250 µg/mL.

**Q.** What about the MIC (S. aureus A9537) of the same compound?
**A.** The MIC was 2 µg/mL (≈ 3.73 µM).

**Q.** And the MIC (S. coli A15119)?
**A.** The MIC was greater than 250 µg/mL.

**Q.** What about the MIC (S. coli A20341-1) of the same compound?
**A.** Its MIC is greater than 250 µg/mL.

**Q.** And the MIC (S. faecalis A20688)?
**A.** Its MIC is 16 µg/mL (≈ 29.9 µM).

**Q.** What about the MIC (S. marcescens A20019) of the same compound?
**A.** The MIC was greater than 250 µg/mL.

**Q.** What about the MIC (S. pneumoniae A9585) of the same compound?
**A.** Its MIC is 32 µg/mL (≈ 59.7 µM).

**Q.** And the MIC (S. pyogenes A9604)?
**A.** The MIC was 32 µg/mL (≈ 59.7 µM).

**Q.** What about the “MST % T/C” value (P-388 leukemia; 16 mg/kg/inj) of the same compound?
**A.** The value was 164%.

**Q.** What about the “Average weight change, day 5” value (P-388 leukemia; 16 mg/kg/inj) of the same compound?
**A.** Its value is -0.9 gm.

**Q.** And the “MST (median survival time)” value (P-388 leukemia; 16 mg/kg/inj)?
**A.** The value was 18.0 days.

**Q.** What about the “MST % T/C” value (P-388 leukemia; 32 mg/kg/inj) of the same compound?
**A.** Its value is 141%.

**Q.** What about the “Average weight change, day 5” value (P-388 leukemia; 32 mg/kg/inj) of the same compound?
**A.** The value was -0.8 gm.

**Q.** What about the “MST (median survival time)” value (P-388 leukemia; 32 mg/kg/inj) of the same compound?
**A.** Its value is 15.5 days.

**Q.** What about the “MST % T/C” value (P-388 leukemia; 64 mg/kg/inj) of the same compound?
**A.** The value was 136%.

**Q.** And the “Average weight change, day 5” value (P-388 leukemia; 64 mg/kg/inj)?
**A.** Its value is -0.8 gm.

**Q.** What about the “MST (median survival time)” value (P-388 leukemia; 64 mg/kg/inj) of the same compound?
**A.** Its value is 15.0 days.

**Q.** And the “MST % T/C” value (P-388 leukemia; 128 mg/kg/inj)?
**A.** The value was 159%.

**Q.** What about the “Average weight change, day 5” value (P-388 leukemia; 128 mg/kg/inj) of the same compound?
**A.** Its value is -0.6 gm.

**Q.** And the “MST (median survival time)” value (P-388 leukemia; 128 mg/kg/inj)?
**A.** Its value is 17.5 days.

**Q.** What about the “MST % T/C” value (P-388 leukemia; 256 mg/kg/inj) of the same compound?
**A.** The value was 136%.

**Q.** What about the “Average weight change, day 5” value (P-388 leukemia; 256 mg/kg/inj) of the same compound?
**A.** The value was -1.5 gm.

**Q.** And the “MST (median survival time)” value (P-388 leukemia; 256 mg/kg/inj)?
**A.** Its value is 15.0 days.

**Q.** And the “MST % T/C” value (P-388 leukemia; 512 mg/kg/inj)?
**A.** Its value is 141%.

**Q.** What about the “Average weight change, day 5” value (P-388 leukemia; 512 mg/kg/inj) of the same compound?
**A.** Its value is -1.0 gm.

**Q.** And the “MST (median survival time)” value (P-388 leukemia; 512 mg/kg/inj)?
**A.** The value was 15.5 days.

**Q.** And the solubility in dimethylsulfoxide (Solubility; dimethylsulfoxide)?
**A.** The solubility in dimethylsulfoxide was “soluble”.

**Q.** What about the solubility in water (Solubility; water) of the same compound?
**A.** Its solubility in water is “insoluble”.

**Q.** What about the antimicrobial activity [4] of the same compound?
**A.** Its antimicrobial activity is “exhibits antimicrobial activity”.

**Q.** What does the source list for `CO[C@H]1[C@H](O)[C@@H](O)[C@H](n2c3c(Cl)cccc3c3c4c(c5c6cccc(Cl)c6[nH]c5c32)C(=O)NC4=O)O[C@@H]1CO` [Rebeccamycin]?
**A.** MIC (E. cloacae A9656): > 250 µg/mL; MIC (E. cloacae A9659): > 250 µg/mL; MIC (K. pneumoniae A20468): > 250 µg/mL; MIC (K. pneumoniae A9664): > 250 µg/mL; MIC [1]: 32 µg/mL (≈ 56.1 µM); MIC [2]: 32 µg/mL (≈ 56.1 µM); MIC (M. luteus A9547): 0.5 µg/mL (≈ 0.877 µM); MIC (M. morganii A15153): > 250 µg/mL; MIC (P. aeruginosa A21213): > 250 µg/mL; MIC (P. aeruginosa A9843A): > 250 µg/mL; MIC (P. mirabilis A9900): > 250 µg/mL; MIC (P. rettgeri A22424): > 250 µg/mL; MIC (P. vulgaris A21559): > 250 µg/mL; MIC [3]: > 250 µg/mL; MIC (S. aureus A9537): 0.5 µg/mL (≈ 0.877 µM); MIC (S. coli A15119): > 250 µg/mL; MIC (S. coli A20341-1): > 250 µg/mL; MIC (S. faecalis A20688): 8 µg/mL (≈ 14 µM); MIC (S. marcescens A20019): > 250 µg/mL; MIC (S. pneumoniae A9585): > 125 µg/mL; MIC (S. pyogenes A9604): > 125 µg/mL; MST % T/C (P-388 leukemia; 16 mg/kg/inj): 136%; Average weight change, day 5 (P-388 leukemia; 16 mg/kg/inj): -0.8 gm; MST (median survival time) (P-388 leukemia; 16 mg/kg/inj): 15.0 days; MST % T/C (P-388 leukemia; 32 mg/kg/inj): 118%; Average weight change, day 5 (P-388 leukemia; 32 mg/kg/inj): -0.6 gm; MST (median survival time) (P-388 leukemia; 32 mg/kg/inj): 13.0 days; MST % T/C (P-388 leukemia; 64 mg/kg/inj): 136%; Average weight change, day 5 (P-388 leukemia; 64 mg/kg/inj): 0.3 gm; MST (median survival time) (P-388 leukemia; 64 mg/kg/inj): 15.0 days; MST % T/C (P-388 leukemia; 128 mg/kg/inj): 132%; Average weight change, day 5 (P-388 leukemia; 128 mg/kg/inj): 0.2 gm; MST (median survival time) (P-388 leukemia; 128 mg/kg/inj): 14.5 days; MST % T/C (P-388 leukemia; 256 mg/kg/inj): 136%; Average weight change, day 5 (P-388 leukemia; 256 mg/kg/inj): -0.3 gm; MST (median survival time) (P-388 leukemia; 256 mg/kg/inj): 15.0 days; MST % T/C (P-388 leukemia; 512 mg/kg/inj): 155%; Average weight change, day 5 (P-388 leukemia; 512 mg/kg/inj): -1.4 gm; MST (median survival time) (P-388 leukemia; 512 mg/kg/inj): 17.0 days
